From a melting point compilation (Tetko et al.; mined from patent text by program, amines drawn as free bases though some values may be those of a salt)

melting point [°C] | SMILES
175 to 179 | CC(=NNc1ccc(-c2c[nH]c(=O)cn2)cc1)c1ccncc1
164 | CCc1nc(C(F)(F)F)c(CN(C(=O)C2CCCc3c(O)cccc32)c2ccc(C(C)C)nc2)s1 (centres undefined)
209 to 211 | Cc1cc(-n2cncn2)cc(C=O)c1N
335 | CN1CCN(c2cc3nc4c(cc3cc2F)c(=O)c(C#N)cn4C)CC1
154 to 155 | CC(OC(=O)C1CCNCC1)C(c1ccccc1)(c1ccccc1)c1ccccc1 (centres undefined)
228 to 230 | CSC1C(=O)Nc2cccc([N+](=O)[O-])c21 (centres undefined)
149 to 151 | COc1ccc(Cc2oc3c(Cl)cc(CCC(=O)O)c(O)c3c2C)cc1
287 | COc1cccc(C(=O)NN=C2C(=O)Nc3ccc(I)cc32)c1
164 to 166 | Nc1ccc2ccc(OCc3ccc4ccccc4n3)cc2c1
26 to 28 | N#C/C=C/c1cccc(Cl)c1
95 | CCCC1CCC(c2ccc(-c3cc(F)c(C(F)(F)Oc4cc(F)c(C(F)(F)F)c(F)c4)c(F)c3)c(F)c2)OC1 (centres undefined)
103 to 109 | O=Cc1ccc(OCc2ccc3ccccc3c2)cc1
76.9 | CCOC(=O)N1CC[C@@H](N)[C@H](O)C1 (relative stereo)
166 to 167 | COc1cc2c(cc1OC(C)=O)CCC1C2CCC2(C)C1CCC21OCCO1 (centres undefined)
225 | CCc1ccccc1NC=C1C(=O)N(c2ccc(C(N)=O)cc2)N=C1C
> 305 | Nc1ccc(NC(=O)Nn2cnc3ccccc3c2=O)cc1
246 | O=C(O)c1cc(C(=O)O)c2c(Cl)cc(Cl)cc2n1
149 to 151 | CCCc1nc(N(C)c2ccccc2)n2ncc(C(=O)c3ccccc3Cl)c2n1
230 to 231 | NC(=O)c1cc(-c2c[nH]nc2-c2ccc(F)cc2)ccn1

melting point [°C] | SMILES
202 to 208 | O=c1[nH]c2ccc([C@H]3CC[C@H](NCCS(=O)(=O)c4ccccc4)CC3)cc2o1
235 to 237 | O=c1c2cc(F)c(N3CCCC3)cc2n(-c2ccccc2F)c(=O)n1O
> 250 | O=C1Nc2cccc(Br)c2C12COc1cc3c(cc12)OCCO3 (centres undefined)
112 | ClCCCn1c(Cc2ccccc2)nc2ccccc21
229 to 234 | CNc1nc(S(C)=O)nc(N)c1[N+](=O)[O-] (centres undefined)
234 | CCOC(=O)c1cn(OC)c2nc3cc(N4CC(NC)C4)c(F)cc3cc2c1=O
199 to 201 | NS(=O)(=O)c1nnc(NC(=O)CNC(=O)OCc2ccccc2)s1
270 | O=S1CCN(CC2CN=C(c3cc4cccc(NS(=O)(=O)c5ccccn5)c4[nH]3)S2)CC1 (centres undefined)
145 to 146 | COC(=O)c1ccc2c(c1)S(=O)(=O)c1ccccc1C2=O
107 to 110 | COC(=O)c1ccc(NC(=O)c2ccccc2OC(C)C)c(C(=O)OC)c1
227 to 229 | Cc1nc2cccc(OCC(C)(C)C(=O)NC3CC3)c2c(N)c1C(=O)O
105 to 107 | CCCCC(CC)COc1ccc2c(-c3ccc(CBr)cc3)c3cc(OCC(CC)CCCC)ccc3c(-c3ccc(CBr)cc3)c2c1 (centres undefined)
203 to 205 | CCN(CCNC(=O)c1n[nH]cc1NC(=O)c1cccc(C)n1)c1cccc(C)c1
91.5 to 93 | COC(=O)C(NCc1ccccc1)c1c[nH]c2ccccc12 (centres undefined)
180 to 181 | CCCCc1nc(Cl)c(C=CC(=O)OCC)n1Cc1ccc(NC(=O)c2ccccc2C(=O)O)cc1
143 to 145 | CN(C)C(=O)NCc1cccc2c1C(=O)N(C1CCC(=O)NC1=O)C2=O (centres undefined)
165 to 167 | CN(C)c1ccc2c(c1)c(=O)[nH]c(=O)n2CCCCN1CCC(OC(c2ccccc2)c2ccccc2)CC1
145 to 148 | O=c1[nH]c2cccnc2n1CCCO

SMILES | melting point [°C]
N=C(Nc1ccc(CCN)cc1)c1cccs1 | 134 to 137
CCS(=O)(=O)Nc1cc(Cc2c[nH]cn2)ccc1C | 140 to 152
